Measurements published in ChEMBL document CHEMBL4004843, “"Addition" and "Subtraction": Selectivity Design for Type II Maternal Embryonic Leucine Zipper Kinase Inhibitors” (J Med Chem, 2017).

What was measured:
[1] = target: Maternal embryonic leucine zipper kinase (Homo sapiens, UniProt Q14680); assay: Inhibition of MELK (unknown origin) containing kinase domain and UBA domain using STK S1 as substrate after 20 mins by HTRF assay
[2] = target: Rho-associated protein kinase 2 (Homo sapiens, UniProt O75116); assay: Inhibition of ROCK2 (unknown origin)
Sequence of Rho-associated protein kinase 2 (O75116 whole entry): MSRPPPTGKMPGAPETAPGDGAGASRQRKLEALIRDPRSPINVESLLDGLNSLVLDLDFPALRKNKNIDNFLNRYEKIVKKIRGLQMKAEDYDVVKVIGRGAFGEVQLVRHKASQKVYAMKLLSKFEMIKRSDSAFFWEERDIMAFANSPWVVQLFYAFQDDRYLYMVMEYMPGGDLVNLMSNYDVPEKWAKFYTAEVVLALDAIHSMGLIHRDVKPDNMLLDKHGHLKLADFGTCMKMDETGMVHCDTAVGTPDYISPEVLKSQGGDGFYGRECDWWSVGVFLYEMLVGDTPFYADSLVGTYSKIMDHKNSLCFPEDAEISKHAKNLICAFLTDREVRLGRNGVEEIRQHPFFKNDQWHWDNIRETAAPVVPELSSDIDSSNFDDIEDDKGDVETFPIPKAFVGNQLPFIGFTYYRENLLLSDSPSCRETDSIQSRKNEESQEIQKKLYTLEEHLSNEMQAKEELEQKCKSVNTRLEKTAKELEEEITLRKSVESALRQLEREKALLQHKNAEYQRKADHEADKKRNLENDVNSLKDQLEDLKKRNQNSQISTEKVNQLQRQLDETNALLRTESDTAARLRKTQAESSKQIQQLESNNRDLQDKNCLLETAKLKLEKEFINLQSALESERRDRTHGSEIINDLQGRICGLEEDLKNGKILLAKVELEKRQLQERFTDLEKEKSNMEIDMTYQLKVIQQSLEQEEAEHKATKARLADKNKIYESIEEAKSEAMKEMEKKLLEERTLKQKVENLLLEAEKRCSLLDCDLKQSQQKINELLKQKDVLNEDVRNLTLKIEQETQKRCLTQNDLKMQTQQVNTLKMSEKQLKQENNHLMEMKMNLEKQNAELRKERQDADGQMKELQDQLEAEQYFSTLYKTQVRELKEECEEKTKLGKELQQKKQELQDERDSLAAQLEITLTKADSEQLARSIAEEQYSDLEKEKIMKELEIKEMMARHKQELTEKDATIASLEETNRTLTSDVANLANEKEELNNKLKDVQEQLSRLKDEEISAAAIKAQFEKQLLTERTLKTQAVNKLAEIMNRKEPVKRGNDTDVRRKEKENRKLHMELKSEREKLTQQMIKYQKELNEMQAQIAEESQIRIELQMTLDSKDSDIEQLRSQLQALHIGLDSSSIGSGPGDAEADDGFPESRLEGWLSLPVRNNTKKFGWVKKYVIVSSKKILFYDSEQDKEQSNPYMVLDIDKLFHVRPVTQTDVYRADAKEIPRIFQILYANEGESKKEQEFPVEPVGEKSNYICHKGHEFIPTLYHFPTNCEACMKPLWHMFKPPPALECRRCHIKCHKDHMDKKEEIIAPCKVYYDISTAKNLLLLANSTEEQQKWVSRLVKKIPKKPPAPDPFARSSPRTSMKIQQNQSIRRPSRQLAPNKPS

Sequence of Maternal embryonic leucine zipper kinase (Q14680 whole entry, the tested form may be a part): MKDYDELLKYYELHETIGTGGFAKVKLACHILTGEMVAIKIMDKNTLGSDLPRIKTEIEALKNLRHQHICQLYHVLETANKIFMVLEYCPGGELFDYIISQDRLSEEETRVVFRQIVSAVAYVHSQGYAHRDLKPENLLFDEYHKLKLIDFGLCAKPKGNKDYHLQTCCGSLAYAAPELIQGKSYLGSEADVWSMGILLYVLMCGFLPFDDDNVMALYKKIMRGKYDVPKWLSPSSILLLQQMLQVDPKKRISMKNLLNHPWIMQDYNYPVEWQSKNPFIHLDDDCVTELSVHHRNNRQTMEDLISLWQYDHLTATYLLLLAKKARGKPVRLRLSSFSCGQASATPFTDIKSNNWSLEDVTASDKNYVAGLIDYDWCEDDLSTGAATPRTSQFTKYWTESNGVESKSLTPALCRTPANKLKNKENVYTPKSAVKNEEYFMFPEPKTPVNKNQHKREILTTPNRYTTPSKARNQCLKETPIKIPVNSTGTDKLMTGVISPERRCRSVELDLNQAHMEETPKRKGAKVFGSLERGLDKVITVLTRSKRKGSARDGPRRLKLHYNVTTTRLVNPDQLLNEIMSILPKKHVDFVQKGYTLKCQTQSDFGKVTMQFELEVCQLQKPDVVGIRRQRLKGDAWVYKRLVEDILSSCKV

Row | Compound | IC50 [1] [nM] | IC50 [2] [nM]
1 | CNc1ncc(-c2ccc(C(=O)NCC(=O)Nc3ccccc3)cc2)c(OCC2CCNCC2)n1 | 120 | 
2 | CNc1ncc(-c2ccc(C(=O)NCc3nc4ccccc4[nH]3)cc2)c(OCC2CCNCC2)n1 | 9.2 | 
3 | O=C(NCc1nc2ccccc2[nH]1)c1ccc(-c2cnccc2OCC2CCNCC2)cc1 | 12 | 
4 | O=C(CNC(=O)c1ccc(-c2cnccc2OCC2CCNCC2)cc1)Nc1ccccc1 | 740 | 360

Stronger by IC50 [1], values ahead:

Row | IC50 [1] [nM] | IC50 [2] [nM] | Compound
5 | 8.8 |  | O=C(CNC(=O)c1ccc(-c2cnc(Nc3ccccc3)nc2OCC2CCNCC2)cc1)Nc1ccccc1
6 | 1.5 | 7800 | COc1ccc2nc(CNC(=O)c3ccc(-c4cnccc4OCC4CCNCC4)cc3)[nH]c2c1
7 | 1.5 |  | CNc1ncc(-c2ccc(C(=O)NCc3nc4ccc(OC)cc4[nH]3)cc2)c(OCC2CCNCC2)n1
8 | 1.1 |  | O=C(NCc1nc2ccccc2[nH]1)c1ccc(-c2cnc(Nc3ccccc3)nc2OCC2CCNCC2)cc1
9 | 0.15 |  | COc1ccc2nc(CNC(=O)c3ccc(-c4cnc(Nc5ccccc5)nc4OCC4CCNCC4)cc3)[nH]c2c1
